Source: patent publication US20230398130A1, “METHODS AND COMPOSITIONS FOR DIFFERENTIATING STEM CELLS” (Massachusetts Institute of Technology, priority 2020, published 2023)

Experiments:
ISC-enriched organoids [1] = experiment: Primary screen, 384-well 2.5-D organoid differentiation (ENR+CD, 6 days, Target Selective Inhibitor Library, vs whole-plate median): ATP (CellTiter-Glo 3D, CTG); details: for Dose.FC.CTG: FC vs plate median; for Dose.FC.CTG (log 2 fold change): vs plate median
ISC-enriched organoids [2] = experiment: Primary screen, 384-well 2.5-D organoid differentiation (ENR+CD, 6 days): basal lysozyme secretion (LYZ.NS); format: cell-based, murine; details: for Dose.FC.LYZ.NS: FC vs plate median; for Dose.FC.LYZ.NS (log 2 fold change): vs plate median
Excerpt: (§1) High-throughput screening.

ISC-enriched organoids [3] = experiment: Primary screen, 384-well 2.5-D organoid differentiation (ENR+CD, 6 days): carbachol-induced lysozyme secretion (LYZ.S); format: cell-based, murine; details: for Dose.FC.LYZ.S: FC vs plate median; for Dose.FC.LYZ.S (log 2 fold change): vs plate median
Excerpt: as §1

[4] = Dose 0.08 uM, standard z score of FC
[5] = Dose 0.40 uM, standard z score of FC
[6] = Dose 2.00 uM, standard z score of FC
[7] = Dose 10.00 uM, standard z score of FC
[8] = Dose 0.08 uM, primary screen, standard z score
[9] = Dose 0.40 uM, primary screen, standard z score
[10] = Dose 2.00 uM, primary screen, standard z score
[11] = Dose 10.00 uM, primary screen, standard z score

`CN(c1ncccc1CNc1nc(Nc2ccc3c(c2)CC(=O)N3)ncc1C(F)(F)F)S(C)(=O)=O` [PF-562271] showed a Dose.FC.CTG (ISC-enriched organoids [1]; Dose 0.08 uM, primary screen) of −0.114 log 2 fold change, a Z.CTG (ISC-enriched organoids [1]; [4]) of −0.273 and a Dose.FC.CTG (ISC-enriched organoids [1]; Dose 0.40 uM, primary screen) of −0.217 log 2 fold change. It also gave a Z.CTG (ISC-enriched organoids [1]; [5]) of −0.518, a Dose.FC.CTG (ISC-enriched organoids [1]; Dose 2.00 uM, primary screen) of −0.549 log 2 fold change and a Z.CTG (ISC-enriched organoids [1]; [6]) of −1.311. The Dose.FC.CTG (ISC-enriched organoids [1]; Dose 10.00 uM, primary screen) was −0.949 log 2 fold change, the Z.CTG (ISC-enriched organoids [1]; [7]) was −2.266 and the Dose.FC.LYZ.NS (ISC-enriched organoids [2]; Dose 0.08 uM, primary screen) was −0.068 log 2 fold change. The Z.LYZ.NS (ISC-enriched organoids [2]; [4]) was −0.589, the Dose.FC.LYZ.NS (ISC-enriched organoids [2]; Dose 0.40 uM, primary screen) was −0.152 log 2 fold change and the Z.LYZ.NS (ISC-enriched organoids [2]; [5]) was −1.325. For the same compound, the Dose.FC.LYZ.NS (ISC-enriched organoids [2]; Dose 2.00 uM, primary screen) was −0.234 log 2 fold change, the Z.LYZ.NS (ISC-enriched organoids [2]; [6]) was −2.034 and the Dose.FC.LYZ.NS (ISC-enriched organoids [2]; Dose 10.00 uM, primary screen) was −0.251 log 2 fold change. For the same compound, the Z.LYZ.NS (ISC-enriched organoids [2]; [7]) was −2.184, the Dose.FC.LYZ.S (ISC-enriched organoids [3]; Dose 0.08 uM, primary screen) was −0.088 log 2 fold change and the Dose.FC.LYZ.S (ISC-enriched organoids [3]; Dose 0.40 uM, primary screen) was −0.214 log 2 fold change. It also gave a Dose.FC.LYZ.S (ISC-enriched organoids [3]; Dose 2.00 uM, primary screen) of −0.332 log 2 fold change and a Dose.FC.LYZ.S (ISC-enriched organoids [3]; Dose 10.00 uM, primary screen) of −0.414 log 2 fold change.
In the case of `COc1ccc(C(=O)Nc2sc3c(c2C(N)=O)CCCC3)cc1OC` [TCS 359], the “Z.CTG (standard z score)” value (ISC-enriched organoids [1]; Dose 0.08 uM, primary screen) is reported as 0.358, the “Dose.FC.CTG (log 2 fold change)” value (ISC-enriched organoids [1]; Dose 0.08 uM, primary screen) is reported as 0.150 and the “Z.CTG (standard z score)” value (ISC-enriched organoids [1]; Dose 0.40 uM, primary screen) is reported as 0.598. For the same compound, the “Dose.FC.CTG (log 2 fold change)” value (ISC-enriched organoids [1]; Dose 0.40 uM, primary screen) was 0.250, the “Z.CTG (standard z score)” value (ISC-enriched organoids [1]; Dose 2.00 uM, primary screen) was 0.119 and the “Dose.FC.CTG (log 2 fold change)” value (ISC-enriched organoids [1]; Dose 2.00 uM, primary screen) was 0.050. For the same compound, the “Z.CTG (standard z score)” value (ISC-enriched organoids [1]; Dose 10.00 uM, primary screen) was −0.212, the “Dose.FC.CTG (log 2 fold change)” value (ISC-enriched organoids [1]; Dose 10.00 uM, primary screen) was −0.089 and the “Z.LYZ.NS (standard z score)” value (ISC-enriched organoids [2]; Dose 0.08 uM, primary screen) was 0.742. For the same compound, the “Dose.FC.LYZ.NS (log 2 fold change)” value (ISC-enriched organoids [2]; Dose 0.08 uM, primary screen) was 0.085, the “Z.LYZ.NS (standard z score)” value (ISC-enriched organoids [2]; Dose 0.40 uM, primary screen) was 0.502 and the “Dose.FC.LYZ.NS (log 2 fold change)” value (ISC-enriched organoids [2]; Dose 0.40 uM, primary screen) was 0.058. The “Z.LYZ.NS (standard z score)” value (ISC-enriched organoids [2]; Dose 2.00 uM, primary screen) was 0.156, the “Dose.FC.LYZ.NS (log 2 fold change)” value (ISC-enriched organoids [2]; Dose 2.00 uM, primary screen) was 0.018 and the “Z.LYZ.NS (standard z score)” value (ISC-enriched organoids [2]; Dose 10.00 uM, primary screen) was −0.072. The “Dose.FC.LYZ.NS (log 2 fold change)” value (ISC-enriched organoids [2]; Dose 10.00 uM, primary screen) was −0.008, the “Dose.FC.LYZ.S (log 2 fold change)” value (ISC-enriched organoids [3]; Dose 0.08 uM, primary screen) was 0.098 and the “Dose.FC.LYZ.S (log 2 fold change)” value (ISC-enriched organoids [3]; Dose 0.40 uM, primary screen) was 0.069. The “Dose.FC.LYZ.S (log 2 fold change)” value (ISC-enriched organoids [3]; Dose 2.00 uM, primary screen) was −0.006 and the “Dose.FC.LYZ.S (log 2 fold change)” value (ISC-enriched organoids [3]; Dose 10.00 uM, primary screen) was 0.026.
Compound `C[C@]12C=CC(=O)N[C@@H]1CC[C@@H]1[C@@H]2CC[C@]2(C)[C@@H](C(=O)Nc3cc(C(F)(F)F)ccc3C(F)(F)F)CC[C@@H]12` [Dutasteride] has a Dose.FC.CTG (ISC-enriched organoids [1]; Dose 0.08 uM, ENR+CD, 6 days) of 0.057 log 2 fold change, a Z.CTG (ISC-enriched organoids [1]; [4]) of 0.137 and a Dose.FC.CTG (ISC-enriched organoids [1]; Dose 0.40 uM, ENR+CD, 6 days) of −0.266 log 2 fold change. It also gave a Z.CTG (ISC-enriched organoids [1]; [5]) of −0.636, a Dose.FC.CTG (ISC-enriched organoids [1]; Dose 2.00 uM, ENR+CD, 6 days) of −0.098 log 2 fold change and a Z.CTG (ISC-enriched organoids [1]; [6]) of −0.234. For the same compound, the Dose.FC.CTG (ISC-enriched organoids [1]; Dose 10.00 uM, ENR+CD, 6 days) was −0.057 log 2 fold change, the Z.CTG (ISC-enriched organoids [1]; [7]) was −0.137 and the Dose.FC.LYZ.NS (ISC-enriched organoids [2]; Dose 0.08 uM, ENR+CD, 6 days) was 0.065 log 2 fold change. For the same compound, the Z.LYZ.NS (ISC-enriched organoids [2]; [4]) was 0.568, the Dose.FC.LYZ.NS (ISC-enriched organoids [2]; Dose 0.40 uM, ENR+CD, 6 days) was 0.006 log 2 fold change and the Z.LYZ.NS (ISC-enriched organoids [2]; [5]) was 0.052. It also gave a Dose.FC.LYZ.NS (ISC-enriched organoids [2]; Dose 2.00 uM, ENR+CD, 6 days) of −0.105 log 2 fold change, a Z.LYZ.NS (ISC-enriched organoids [2]; [6]) of −0.915 and a Dose.FC.LYZ.NS (ISC-enriched organoids [2]; Dose 10.00 uM, ENR+CD, 6 days) of −0.092 log 2 fold change. It also gave a Z.LYZ.NS (ISC-enriched organoids [2]; [7]) of −0.799, a Dose.FC.LYZ.S (ISC-enriched organoids [3]; Dose 0.08 uM, ENR+CD, 6 days) of 0.001 log 2 fold change and a Dose.FC.LYZ.S (ISC-enriched organoids [3]; Dose 0.40 uM, ENR+CD, 6 days) of −0.054 log 2 fold change. The Dose.FC.LYZ.S (ISC-enriched organoids [3]; Dose 2.00 uM, ENR+CD, 6 days) was −0.074 log 2 fold change and the Dose.FC.LYZ.S (ISC-enriched organoids [3]; Dose 10.00 uM, ENR+CD, 6 days) was −0.151 log 2 fold change.
`NC(=O)c1cccc(-c2cc(Nc3ccc(OC(F)(F)F)cc3)ncn2)c1` [GNF-2] showed a Dose.FC.CTG (ISC-enriched organoids [1]; Dose 0.08 uM, primary screen) of 0.157 log 2 fold change, a Z.CTG (ISC-enriched organoids [1]; [8]) of 0.376 and a Dose.FC.CTG (ISC-enriched organoids [1]; Dose 0.40 uM, primary screen) of 0.090 log 2 fold change. For the same compound, the Z.CTG (ISC-enriched organoids [1]; [9]) was 0.214, the Dose.FC.CTG (ISC-enriched organoids [1]; Dose 2.00 uM, primary screen) was 0.074 log 2 fold change and the Z.CTG (ISC-enriched organoids [1]; [10]) was 0.176. It also gave a Dose.FC.CTG (ISC-enriched organoids [1]; Dose 10.00 uM, primary screen) of 0.100 log 2 fold change, a Z.CTG (ISC-enriched organoids [1]; [11]) of 0.240 and a Dose.FC.LYZ.NS (ISC-enriched organoids [2]; Dose 0.08 uM, primary screen) of 0.159 log 2 fold change. The Z.LYZ.NS (ISC-enriched organoids [2]; [8]) was 1.386, the Dose.FC.LYZ.NS (ISC-enriched organoids [2]; Dose 0.40 uM, primary screen) was −0.024 log 2 fold change and the Z.LYZ.NS (ISC-enriched organoids [2]; [9]) was −0.206. For the same compound, the Dose.FC.LYZ.NS (ISC-enriched organoids [2]; Dose 2.00 uM, primary screen) was 0.012 log 2 fold change, the Z.LYZ.NS (ISC-enriched organoids [2]; [10]) was 0.102 and the Dose.FC.LYZ.NS (ISC-enriched organoids [2]; Dose 10.00 uM, primary screen) was −0.033 log 2 fold change. It also gave a Z.LYZ.NS (ISC-enriched organoids [2]; [11]) of −0.286, a Dose.FC.LYZ.S (ISC-enriched organoids [3]; Dose 0.08 uM, primary screen) of 0.121 log 2 fold change and a Dose.FC.LYZ.S (ISC-enriched organoids [3]; Dose 0.40 uM, primary screen) of 0.001 log 2 fold change. It also gave a Dose.FC.LYZ.S (ISC-enriched organoids [3]; Dose 2.00 uM, primary screen) of 0.046 log 2 fold change and a Dose.FC.LYZ.S (ISC-enriched organoids [3]; Dose 10.00 uM, primary screen) of −0.015 log 2 fold change.
